Results on eight molecules are retold here after article PMC10775556, “Synthesis, antileishmanial, antimalarial evaluation and molecular docking study of some hydrazine-coupled pyrazole derivatives” (BMC Chemistry, 2024).

Broadly, the CC50 is the concentration that lowers cell viability or growth by half.

Values after ≈ are worked out from the molar mass of the structure shown. Values joined by “and” are separate entries in the source; they are usually repeats but may differ in a detail not shown here. Equal entries are not always repeated. Where two headings read alike, the source gives them in different places.

Data set [1] has as its system Leishmania aethiopica promastigotes. Nature of the data set: In vitro antipromastigote (antileishmanial) assay, AlamarBlue. Type of data set: cell-based. On the procedure: The viability of promastigotes can be estimated by microscopically counting live cells, measuring enzyme activities via the 3-(4,5-dimethyl-thiazol-2-yl)-2,5-diphenyl-tetrazolium bromide (MTT) assay, etc. The frequent use of these methods is hampered due to the lengthy and time-consuming procedures followed in the test. […] The extent of fluorescence produced by each sample is strongly correlated with the number of living cells.
A complete culture medium was prepared from RPMI-1640, 10% HIFCS, 1% penicillin–streptomycin, and 1% L-glutamine for the in vitro antipromastigote assay. The Leishmania aethiopica isolate was grown first on Novy-MacNeal-Nicolle (NNN) medium and then in tissue-culture flasks containing RPMI-1640 medium supplemented with 10% HIFCS and 1% 100 IU penicillin/mL-100 µg/mL streptomycin solution at 22 ℃ [35].
The entire test compound was dissolved in DMSO to a final concentration of 1 mg/mL. The final DMSO concentration was adjusted not to exceed v/v 1% to avoid its inhibitory effect against parasite proliferation or change in morphology. Six different concentrations of test compounds, ranging from 10 µg/mL to 0.04 µg/mL, were prepared by […] serial dilutions. Amphotericin B deoxycholate (with a concentration ranging from 0.5 µg/mL to 0.002 µg/mL) and miltefosine (with a concentration ranging from 40 µg/mL to 0.16 µg/mL) were used as a positive control and DMSO (v/v 1%) in complete media was used as a negative control to compare the antileishmanial activities of test compounds [36]. All the prepared drugs were stored at − 20 ℃ until used in the experiment.
The antileishmanial activity of the test compounds was evaluated in vitro against isolates of Leishmania aethiopica promastigotes. 100 µL of the parasite suspension containing 3 × 10^6 promastigotes per milliliter was added to 96-well plates. The six different concentrations of test compounds and reference drugs were then added in triplicate. DMSO in complete RPMI media was used as a negative control to compare the antileishmanial activities of the test compounds. After 24 h incubation, 20 µL of fluorochrome AlamarBlue® (12.5 mg resazurin dissolved in 100 mL of distilled water) was added to each well. Then, the absorbance of each well was measured after 4 h of incubation at wavelengths of 492 and 630 nm using an ELISA reader for the quantitative determination of viable cells. Finally, the IC50 values were computed from sigmoidal dose–response curves using GraphPad Prism 5.0 software (GraphPad Software, Inc., San Diego, CA, USA).
Background: Alamar Blue is a resazurin reagent that responds to reducing activity.

On the set-up of data set [2]: method as in PMID 25768697. The note with it: cited from earlier work.
Data set [3] has as its system Plasmodium berghei ANKA strain. Kind of data set: In vivo antimalarial four-day suppressive test. As to conditions: P. berghei infected mice; for Mean survival time: 48.46 µmol/kg per day (CQ 25 mg/kg), ND = no mouse death recorded during the study period; for Mean survival time / % Parasitemia: mean ± SD; for % Parasitemia / inhibition in vivo at 48.46 µmol/kg: day 4, 48.46 µmol/kg per day (CQ 25 mg/kg); for inhibition in vivo at 48.46 µmol/kg: Plasmodium berghei, in Mus musculus, 96 h, read-out: % Suppression. On the set-up: species or system Swiss albino mice. An excerpt:
The four-day suppressive test was implemented to screen the antimalarial activity of the target compounds as it is effective in evaluating early infections and convenient to assess the prodrug effects of test compounds [30]. In this study, the in vivo antimalarial activity of the target compounds was investigated by using mice infected with Plasmodium berghei (achieve steady-state infection) at a dose of 48.4 µmol/kg per day. The results of the antimalarial activity screening of target compounds against the control groups were expressed based on mean parasitemia and percent inhibition of parasitemia (Table 2) which is known as a reliable parameter for in vivo antimalarial screening tests. […] While compounds 9, 10 and 11 containing amidic carbonyl group had less than 50% mean percent suppression compared to the positive control groups. Among the tested compounds, bis-[N,N-dimethylaminomethylene-4-(3-(4-methylphenyl)-4-(hydrazonomethylene)-1H-pyrazole-1-yl)benzenesulfonamide] […] On the other hand, there was an increase in the mean survival time (9.8 ± 1.3) of mice treated with a half dose ([…]) of compound 15, highlighting the potential dose-dependent toxicity associated with bis-structure due to cleavage of acid labile C = N bond and subsequent increase in concentration in the systemic circulation. […] This could be attributed to the presence of a primary amine group adjacent to the C = N bond that can increase the strength of binding interaction with the active site of the receptor by hydrogen bonding. Moreover, the hydrophobic interaction imparted by the methylated phenyl group with the amino acid residues in the enzyme pocket may be beneficial for the observed antimalarial activity of compound 14. The compounds containing C = O bond (9–12) near C = N had relatively lower antimalarial activity due to the electron-withdrawing effect and subsequent decrease in hydrogen bonding interactions with the different functional groups reside in the enzyme pocket.
The in vivo antimalarial activity of the synthesized compounds was determined using the four-day standard suppressive test using Swiss albino mice donated by the Ethiopian Health and Nutrition Institute, Addis Ababa, Ethiopia. Briefly, Swiss albino mice were infected with Plasmodium berghei ANKA strain (0.2 mL of 2 × 10^7 parasitized erythrocytes) through intraperitoneal injection. After 2 h of infection, the mice were weighed and randomly divided into nine groups of five mice per cage. Groups 1–7 received each test compound ([…]) dissolved in a vehicle containing 7% Tween 80, 3% ethanol, and water. Group 8 was treated with chloroquine phosphate (25 mg/kg) suspended in 7% Tween 80, 3% ethanol, and water which served as a positive control. Group 9 received 2 mL/100 g of the negative control (vehicle 7% Tween 80, 3% ethanol, and water). On day four (96 h post-infection), a blood smear was taken from the tail of each mouse, fixed with absolute ethanol, and stained with Giemsa stain. Then, the level of parasitemia was determined microscopically by counting four fields of approximately 100 erythrocytes per field. Finally, the antimalarial effects of control groups and test compounds were expressed in terms of blood parasitemia, percent suppression and mean survival time of mice.
The % suppression and % parasitemia in the antimalarial activity testing were computed using the formulas given below and the resulting data along with the mean survival time was analyzed using Microsoft office excel 2007. The variation in the values of suppressive test was assessed by using one-way analysis of variance (ANOVA) and p < 0.05 is considered as stastically significant.
Parasitemia(%)=Numberofinfectedredbloodcells/Numberoftotalredbloodcells×100
Suppression(%)=Parasitemiaintheuntreatedgroup-Parasitemiainthetreatedgroup/Parasitemiainuntreatedgroup×100

Data set [4] is described as follows: In vivo acute toxicity test (oral and intraperitoneal). As to conditions: mice. On the procedure: The mice were weighed and divided into five groups of six mice per cage. After fasting them overnight, groups 1–4 received the test compound suspended in 1% acacia gum was administered orally at doses of 50, 100, 200, and 300 mg/kg. Group 5 (served as a control) was treated with the solvent (1% acacia gum) at a maximum dose of 1 mL/100 gm of body weight. […] Follow-up continued for 14 days with special attention for the first 24 h.

The test system of a further data set is VERO cells. Nature of the data set: In vitro cytotoxicity test. The class given is cell-based, African green monkey. The note with it: CC50 VERO cells / IC50 Leishmania aethiopica. On the procedure:
(§1) The cytotoxicity of compound 13 with promising antileishmanial activity was investigated in vitro against African green monkey kidney cells (VERO cells). In a 96-well plate, VERO cells (1 × 10^5 cells per well) were incubated in triplicates with different concentrations of compound 13 (0–100 µM) for 72 h at 37 ℃ incubator with 95% humidity and 5% CO2 and the cell viability was determined by measuring the optical density (OD) of formazan. […] The CC50 and IC50 values were computed using the formula: Growth inhibition (%) = (ODcontrol-ODtest/ODcontrol)×100 . In addition, the selectivity indices (SI) were computed using the formula SI = CC50/IC50.

Data set [5] in a line: In vitro cytotoxicity test. Type of data set: cell-based, African green monkey. The note with it: African green monkey, VERO cells (African green monkey kidney cells); normal VERO cells, 72 h, formazan OD. On the procedure:
as §1

Setting [6] is: Leishmania aethiopica promastigotes, triplicate, 24 h incubation + 4 h AlamarBlue, read-out: IC50 Values (µg/mL), antipromastigote activity.
Where [7] appears, read: Leishmania aethiopica promastigotes, molar form of the µg/mL values, read-out: IC50 Values (µM/mL), antipromastigote activity.

On to `C[C@@H]1[C@H](O)[C@@H](C)/C=C/C=C/C=C/C=C/C=C/C=C/C=C/[C@H](O[C@@H]2O[C@H](C)[C@@H](O)[C@H](N)[C@@H]2O)C[C@@H]2O[C@](O)(C[C@@H](O)C[C@@H](O)[C@H](O)CC[C@@H](O)C[C@@H](O)CC(=O)O[C@H]1C)C[C@H](O)[C@H]2C(=O)O` [Amphotericin B, Amphotericin B deoxycholate, reference compound], for which the results for the IC50 in data set [1] (setting [6]) and in data set [1] (setting [7]) were 0.047 µg/mL and 0.035 µM, respectively. Further, in data set [2], the “IC50, antileishmanial activities” value is reported as 0.0472 µg/mL (≈ 0.0511 µM).
Consider `O=C(NN=Cc1cn(-c2ccc(Br)cc2)nc1-c1ccccc1)c1ccccc1O` [Compound 9, Nʹ-[(1-(4-bromophenyl)-3-phenyl-1H-pyrazol-4-yl)methylene] salicylhydrazide], for which the IC50 in data set [1] (setting [6]) amounted to 0.084 µg/mL. For the same molecule, the IC50 in data set [1] (setting [7]) came to 0.256 µM. Besides, in data set [3], the “Mean survival time” value came out at 8.6 ± 1.8 days, the “% Parasitemia” value came to 34.7 ± 4.1% and the inhibition in vivo at 48.46 µmol/kg is less than 50%.
On the same counts, the results for `CN(C)C=NS(=O)(=O)c1ccc(-n2cc(/C=N/NC(=O)c3ccccc3O)c(-c3ccc(Cl)cc3)n2)cc1` [Compound 10, Nʹ-[(3-(4-chlorophenyl)-1-((4-N,N-dimethylaminomethylenesulfonamido)phenyl)-1H-pyrazol-4-yl)methylene] salicylhydrazide] are 0.207 µg/mL, 0.45 µM, 6.8 ± 0.7 days, 33.0 ± 6.7% and less than 50%.
With `Cc1ccc(-n2cc(C=NNC(=O)c3ccccc3O)c(-c3ccccc3)n2)cc1` [Compound 11, Nʹ-[(3-phenyl-1-(4-methylphenyl)-1H-pyrazol-4-yl)methylene] salicylhydrazide], in data set [1] (setting [6]), the IC50 amounted to 5.74 µg/mL. In addition, the IC50 in data set [1] (setting [7]) turned out to be 10.4 µM. Besides, in data set [3], the “Mean survival time” value was 8.7 ± 0.7 days, the “% Parasitemia” value is 30.0 ± 6.7% and the inhibition in vivo at 48.46 µmol/kg is less than 50%.
For `Cc1ccc(-c2nn(-c3ccc(S(=O)(=O)N=CN(C)C)cc3)cc2/C=N/NC(=O)c2ccccc2O)cc1` [Compound 12], the IC50 is 0.111 µg/mL in data set [1] (setting [6]) and 0.28 µM in data set [1] (setting [7]). The “Mean survival time” value in data set [3] was 7.8 ± 1.2 days. Further, the “% Parasitemia” value in data set [3] came to 67.9 ± 3.7%.
For `Cc1ccc(-c2nn(-c3ccc(S(=O)(=O)N=CN(C)C)cc3)cc2/C=N/Nc2ccccc2)cc1` [Compound 13, N,N-dimethylaminomethylene-4-[(3-(4-methylphenyl)-4-(phenylhydrazonomethylene))-1H-pyrazol-1-yl]benzenesulfonamide], the intraperitoneal acute toxicity result in data set [4] (intraperitoneal injection ≤ 140 mg/kg, within 24 h or the entire study period) was “devoid of any inherent dose-dependent toxicity or death”. Further, the “oral acute toxicity: death” value in data set [4] (oral 50, 100, 200 and 300 mg/kg, 14 days) is “devoid of any death at all dose”. The “oral acute toxicity: physical and gross behavioral observations” value in data set [4] (oral, up to highest dose 300 mg/kg) is “no visible symptoms of toxicity”. Moreover, the IC50 in data set [1] (Leishmania aethiopica, read-out: IC50 Values (µM/mL), antipromastigote activity) was 0.033 µM. The IC50 in data set [1] (Leishmania aethiopica, value used for selectivity index, read-out: IC50 (µM) of antileishmanial activity (Table 3)) was 0.604 µM. Moreover, the “fold more active than amphotericin B deoxycholate (antipromastigote)” value in data set [1] (ratio of IC50 values versus amphotericin B deoxycholate) was roughly 2.6 fold. In the data set with VERO cells, the “SI (selectivity index, CC50/IC50)” value was 194 and 194.88. Also, in data set [5], it took 118000 nM to reach half-maximal cytotoxicity (CC50 at 72 h). In data set [3], the “Mean survival time” value came to 9.5 ± 1.9 days, the “% Parasitemia” value stood at 24.0 ± 1.7% and the inhibition in vivo at 48.46 µmol/kg was greater than 50%.
Regarding `Cc1ccc(-c2nn(-c3ccc(S(N)(=O)=O)cc3)cc2/C=N/N)cc1` [Compound 14, 4-[3-(4-methylphenyl)-4-hydrazonomethylene-1H-pyrazol-1-yl] benzenesulfonamide], in data set [1] (setting [6]), the IC50 was found to be 3.26 µg/mL. In data set [1] (setting [7]), the IC50 was 6.71 µM. Further, in data set [3], the “Mean survival time” value was found to be 9.0 ± 2.0 days and the “% Parasitemia” value was 15.5 ± 4.1%.
For `Cc1ccc(-c2nn(-c3ccc(S(=O)(=O)N=CN(C)C)cc3)cc2C=NN=Cc2cn(-c3ccc(S(=O)(=O)N=CN(C)C)cc3)nc2-c2ccc(C)cc2)cc1` [Compound 15, Bis-[N,N-dimethylaminomethylene-4-(3-(4-methylphenyl)-4-(hydrazonomethylene)-1H-pyrazole-1-yl)benzenesulfonamide]], the IC50 in data set [1] (setting [6]) amounted to 0.181 µg/mL; in data set [1] (setting [7]), 0.441 µM. Also, in data set [3], the “Mean survival time” value stood at 7.7 ± 1.4 days. In addition, the “% Parasitemia” value in data set [3] is 5.0 ± 1.4%. Also, the “mean survival time at half dose” value in data set [3] (half dose (24.2 µmol/mL)) was 9.8 ± 1.3.
